Results taken from US10506810B2, “Synergistic herbicidal composition” (QINGDAO KINGAGROOT RESISTANT WEED MANAGEMENT CO., LTD., priority 2015, dated 2019).

Key:
[1] = system: Myosoton aquaticum; experiment: pot-culture method, stem and leaf treatment in greenhouse, fresh weight inhibition rate 20 days after treatment (Gowing method); format: in vivo
Experimental: (§1) Capsella bursa-pastoris, Myosoton aquaticum, Alopecurus japonicus were collected from corn fields in Huangdao Experimental Base of Shandong Province.
(§2) The above weeds were cultivated by a pot culture method. […] Full and uniform weed seeds were selected, soaked in warm water at 25° C. for 6 hours, and germinated in a 28° C. biochemical incubator (darkness). […] A certain amount of water was added to the enamel pan regularly to keep the soil moist.
(§3) The technical materials were all dissolved in acetone, and diluted with an aqueous solution containing 0.1% emulsifier T-80. The dilution is performed as required.
(§4) A ratio of the active ingredient A to the active ingredient B and amounts thereof in each group depends on the characteristics and toxicity of the two agents, as well as the main application purpose of a corresponding formulation. Based on the pre-tests in this study, the dosage of the active ingredient A and the active ingredient B applied alone and in combination were shown in the tables, and a total 15 groups were designed. Water containing the solvent and emulsifier same with the above groups but free of the agents was used as a blank control.
(§5) 3 pots with 20 weed seeds per pot were treated in one treatment with […] per treatment, that is, a total of 60 weeds were treated in one treatment.
(§6) The agents were used for only once in the experiment. In the stage of weeds with 2 leaves and 1 core, the weeds were thinned out to maintain 15 weeds per pot and 45 weeds for each treatment, then continued to be cultured to 3-5-leaves stage of Capsella bursa-pastoris and Myosoton aquaticum, and 3-leaves and 1-core stage of Alopecurus japonicus, and treated.
(§7) The well-cultured weeds were evenly placed on a platform with an area of 0.5 m^2, and a solution of agents was sprayed on the stems and leaves thereof by the 3WP-2000-type walking spray tower at a dosage of 30 kg/ha and at a spray pressure of 0.3 MPa. After all the solution was sprayed, the valve was closed. After 30 seconds, the door of the spray tower was opened, and the nutritional bowl was taken out. Then the valve was opened, and the spray tube was cleaned by spraying 50 ml of water.
(§8) A pot-culture method was employed. For the cultivation of weeds, please refer to the Section 1.2, and “Pesticide guidelines for laboratory bioactivity tests—herbicides”. As to a method for applying agents, please refer to the section 2.3.2, that is, a method for treating stems and leaves was employed.
(§9) A method for investigating absolute number was employed, wherein whole seedlings of survival weeds were cut off with a blade along the soil surface, and the fresh weight of the weeds was weighed with an analytical balance. For dead weeds, the fresh weight thereof was zero.
(§10) The investigation was performed after 20 days of the treatment for only once.
(§11) Wherein, in the formula, X represented the fresh weight inhibition rate of the active ingredient A in a dosage of P, and Y represented the fresh weight inhibition rate of the active ingredient B in a dosage of Q.

[2] = system: Capsella bursa-pastoris; experiment: as above; format: in vivo
Experimental: as §1, §2, §3, §4, §5, §6, §7, §8, §9, §10, §11

[3] = Myosoton aquaticum, 480 h, read-out: actual fresh weight inhibition rate
[4] = Capsella bursa-pastoris, 480 h, read-out: actual fresh weight inhibition rate

CC(C)CCCCCOC(=O)COc1ccc(Cl)cc1Cl [2,4-D isooctyl ester, reference compound]
actual fresh weight inhibition rate (%) ([1]; dosage 200 g/hm^2): 15.4% | actual fresh weight inhibition rate (%) ([1]; dosage 350 g/hm^2): 26.3% | actual fresh weight inhibition rate (%) ([1]; dosage 500 g/hm^2): 47.9% | actual fresh weight inhibition rate (%) ([2]; dosage 200 g/hm^2): 21.1% | actual fresh weight inhibition rate (%) ([2]; dosage 350 g/hm^2): 34.2% | actual fresh weight inhibition rate (%) ([2]; dosage 500 g/hm^2): 55.9%

dimethylammonium 4-chloro-o-tolyloxyacetate [MCPA-dimethylammonium, reference compound]
actual fresh weight inhibition rate (%) ([1]; dosage 550 g/hm^2): 26.7% | actual fresh weight inhibition rate (%) ([1]; dosage 950 g/hm^2): 33.1% | actual fresh weight inhibition rate (%) ([1]; dosage 1350 g/hm^2): 47.2% | actual fresh weight inhibition rate (%) ([2]; dosage 550 g/hm^2): 29.2% | actual fresh weight inhibition rate (%) ([2]; dosage 950 g/hm^2): 43.6% | actual fresh weight inhibition rate (%) ([2]; dosage 1350 g/hm^2): 59.2%

CSc1nc(NC(C)C)nc(NC(C)C)n1 [prometryn]
pest or weed control at 150 g/ha ([1]; Myosoton aquaticum, 480 h, Myosoton aquaticum, 150 g/hm^2, read-out: actual fresh weight inhibition rate): 22.6% | pest or weed control at 450 g/ha ([1]; Myosoton aquaticum, 480 h, Myosoton aquaticum, 450 g/hm^2, read-out: actual fresh weight inhibition rate): 33.7% | pest or weed control at 750 g/ha ([1]; Myosoton aquaticum, 480 h, Myosoton aquaticum, 750 g/hm^2, read-out: actual fresh weight inhibition rate): 45.2% | pest or weed control at 150 g/ha ([2]; 480 h, Capsella bursa-pastoris, 150 g/hm^2, read-out: actual fresh weight inhibition rate): 20.4% | pest or weed control at 450 g/ha ([2]; 480 h, Capsella bursa-pastoris, 450 g/hm^2, read-out: actual fresh weight inhibition rate): 29.6% | pest or weed control at 750 g/ha ([2]; 480 h, Capsella bursa-pastoris, 750 g/hm^2, read-out: actual fresh weight inhibition rate): 45.7%

CCCCCCCC(=O)Oc1c(Br)cc(C#N)cc1Br [bromoxynil octanoate]
pest or weed control at 190 g/ha ([1]; Myosoton aquaticum, 480 h, dosage 190 g/hm^2, read-out: actual fresh weight inhibition rate): 25.8% | pest or weed control at 375 g/ha ([1]; Myosoton aquaticum, 480 h, dosage 375 g/hm^2, read-out: actual fresh weight inhibition rate): 38.5% | pest or weed control at 560 g/ha ([1]; Myosoton aquaticum, 480 h, dosage 560 g/hm^2, read-out: actual fresh weight inhibition rate): 57.3% | pest or weed control at 190 g/ha ([2]; Capsella bursa-pastoris, 480 h, dosage 190 g/hm^2, read-out: actual fresh weight inhibition rate): 42.7% | pest or weed control at 375 g/ha ([2]; Capsella bursa-pastoris, 480 h, dosage 375 g/hm^2, read-out: actual fresh weight inhibition rate): 55.7% | pest or weed control at 560 g/ha ([2]; Capsella bursa-pastoris, 480 h, dosage 560 g/hm^2, read-out: actual fresh weight inhibition rate): 78.6%

CSc1nnc(C(C)(C)C)c(=O)n1N [metribuzin, reference compound]
actual fresh weight inhibition rate (%) ([1]; dosage 13.5 g/hm^2): 42.1% | actual fresh weight inhibition rate (%) ([1]; dosage 25 g/hm^2): 52.9% | actual fresh weight inhibition rate (%) ([1]; dosage 36.5 g/hm^2): 58.5% | actual fresh weight inhibition rate (%) ([2]; dosage 13.5 g/hm^2): 55.6% | actual fresh weight inhibition rate (%) ([2]; dosage 25 g/hm^2): 64.1% | actual fresh weight inhibition rate (%) ([2]; dosage 36.5 g/hm^2): 82.3%

CN(C)C(=O)SCCCCOc1ccccc1 [fenothiocarb]
pest or weed control at 40 g/ha [1, 3]: 70.3% | pest or weed control at 65 g/ha [1, 3]: 84.5% | pest or weed control at 90 g/ha [1, 3]: 97.3% | pest or weed control at 40 g/ha [2, 4]: 0% | pest or weed control at 65 g/ha [2, 4]: 0% | pest or weed control at 90 g/ha [2, 4]: 0%

COC(=O)c1c(Cl)nn(C)c1S(=O)(=O)NC(=O)Nc1nc(OC)cc(OC)n1 [halosulfuron-methyl]
pest or weed control at 30 g/ha [1, 3]: 14.5% | pest or weed control at 50 g/ha [1, 3]: 34.9% | pest or weed control at 70 g/ha [1, 3]: 50.5% | pest or weed control at 30 g/ha [2, 4]: 17.9% | pest or weed control at 50 g/ha [2, 4]: 27.8% | pest or weed control at 70 g/ha [2, 4]: 44.1%

Cc1cc(Cl)ccc1OCC(=O)[O-].[Na+] [MCPA-Na, reference compound]
actual fresh weight inhibition rate (%) ([1]; dosage 400 g/hm^2): 24.8% | actual fresh weight inhibition rate (%) ([1]; dosage 800 g/hm^2): 36.9% | actual fresh weight inhibition rate (%) ([1]; dosage 1200 g/hm^2): 50.9% | actual fresh weight inhibition rate (%) ([2]; dosage 400 g/hm^2): 22.1% | actual fresh weight inhibition rate (%) ([2]; dosage 800 g/hm^2): 38.3% | actual fresh weight inhibition rate (%) ([2]; dosage 1200 g/hm^2): 56.7%

COc1ncc(F)c2nc(S(=O)(=O)Nc3c(F)cccc3F)nn12 [florasulam]
actual fresh weight inhibition rate ([1]; Myosoton aquaticum, 2.5 g/hm^2): 28.3% | actual fresh weight inhibition rate ([1]; Myosoton aquaticum, 5 g/hm^2): 41.9% | actual fresh weight inhibition rate ([2]; Capsella bursa-pastoris, 2.5 g/hm^2): 45.8% | actual fresh weight inhibition rate ([2]; Capsella bursa-pastoris, 5 g/hm^2): 60.4%
